Test results reported in patent publication US8106034B2, “Angiotensin II receptor antagonists” (Merck Sharp & Dohme Corp., priority 2008, dated 2012).

Test system: isolated rabbit thoracic aorta preparations
Assay: Vessel relaxation in isolated rabbit thoracic aorta preparations
Details: Oryctolagus cuniculus; in vitro, rabbit aortic rings precontracted with noradrenaline, functional endothelium present
Procedure: The ability of the compounds to induce vasorelaxation was tested in vitro in isolated rabbit thoracic aorta preparations (Wanstall J. C. et al., Br. J. Pharmacol., 134:463-472, 2001). Male New Zealand rabbits were anaesthetized with thiopental-Na (50 mg/kg, iv), sacrificed by exsanguinations and then the thorax was opened and the aorta dissected. Aortic ring preparations (4 mm in length) were set up in physiological salt solution (PSS) at 37° C. in small organ chambers (5 ml). The composition of PSS was (mM): NaCl 130, NaHCO3 14.9, KH2PO4 1.2, MgSO4 1.2, HEPES 10, CaCl2, ascorbic acid […] and glucose 1.1 (95% O2/5% CO2; pH 7.4). Each ring was mounted under 2 g passive tension. Isometric tension was recorded with a Grass transducer (Grass FT03) attached to a BIOPAC MP150 System. Preparations were allowed to equilibrate for 1 h, and then contracted submaximally with noradrenaline (NA, 1 μM) and, when the contraction was stable, acetylcholine (ACh, 10 μM) was added. A relaxant response to ACh indicated the presence of a functional endothelium. […] When a stable precontraction was reached, a cumulative concentration-response curve to either of the vasorelaxant agents was obtained in the presence of a functional endothelium. Each arterial ring was exposed to only one combination of inhibitor and vasorelaxant. […]
Examples 3 and 5 were evaluated for vessel relaxation.

| SMILES | EC50 [µM] |
| --- | --- |
| CCCCc1nc(Cl)c(C(=O)OCO/N=[N+](\[O-])N2CCCCC2CO)n1Cc1ccc(-c2ccccc2-c2nnn[nH]2)cc1 (centres unmarked) [Example 3, O^2-({[(2-butyl-4-chloro-1-{[2′-(1H-tetrazol-5-yl)biphenyl-4-yl]methyl}-1H-imidazol-5-yl)carbonyl]oxy}methyl)1-[2-(hydroxymethyl)piperidin-1-yl]diazen-1-ium-1,2-diolate] | 5.3 |
| CCCCc1nc(Cl)c(C(=O)OCO/N=[N+](\[O-])N2CCC[C@H]2C(=O)O)n1Cc1ccc(-c2ccccc2-c2nnn[nH]2)cc1 [Example 5, O^2-({[(2-butyl-4-chloro-1-{[2′-(1H-tetrazol-5-yl)biphenyl-4-yl]methyl}-1H-imidazol-5-yl)carbonyl]oxy}methyl)1-[2S-(carboxylato)pyrrolidin-1-yl]diazen-1-ium-1,2-diolate] | 18.7 |
